Consider 13 compounds from ChEMBL document CHEMBL1140674, “Design and synthesis of bioactive adamantane spiro heterocycles” (Bioorg Med Chem Lett, 2007).

Series [1] is described as follows: Cytotoxicity against MDCK cells assessed as changes in cell morphology. The series is classed as cell-based, Canis lupus familiaris. To be noted: dog.
The subject of a further series is Influenza A virus. Kind of series: Antiviral activity against influenza A/Hong Kong/7/87 (H3N2) in MDCK cells assessed as inhibition of virus-induced cytopathic effect by MTS assay. The series is classed as functional, organism-based.
A further series deals with Trypanosoma brucei. The series can be described thus: Antiparasitic activity against Trypanosoma brucei 221 blood stream form at pH 7.4. The series is classed as functional, organism-based.

Regarding `C1CC2(N1)C1CC3CC(C1)CC2C3` (centres undefined), in series [1], the MCC was 250 µM. Further, the EC50 with Influenza A virus (Influenza A virus, H3N2, MDCK) turned out to be 0.36 µM.
Regarding `CC(N)C12CC3CC(CC(C3)C1)C2` (centres undefined) [RIMANTADINE], in the series with Trypanosoma brucei, the IC50 stood at 7.04 µM and the 90% effect level (IC90) was put at 14 µM. In addition, the MCC in series [1] was more than 100 µM. In addition, the EC50 in the series on Influenza A virus (Influenza A virus, H3N2, MDCK) stood at 0.362 µM.
In the series on Trypanosoma brucei, `C1CC2(CCN1)C1CC3CC(C1)CC2C3` showed an IC50 of 5.28 µM and an IC90 of 9.99 µM.
Turning to `C1CC2(CCN1)C1CC3CC(C1)CC2C3.Cl`, the MCC in series [1] came out at 17 µM. Besides, the EC50 in the series with Influenza A virus (Influenza A virus, H3N2, MDCK) is 0.16 µM.
Regarding `CN1CC12C1CC3CC(C1)CC2C3` (centres undefined), the MCC in series [1] amounted to 23 µM. Further, the EC50 in the series on Influenza A virus (Influenza A virus, H3N2, MDCK) was more than 4.5 µM.
In the same order, the values of `C1C2CC3CC1CC(C2)C31CNC1` are 113 µM and 0.33 µM.
Compound `O=C1NC(=O)C2(C(=O)N1)C1CC3CC(C1)CC2C3` had an IC50 in the series with Trypanosoma brucei of 20 µM.
`NC(=O)c1ncn([C@@H]2O[C@H](CO)[C@@H](O)[C@H]2O)n1` [RIBAVIRIN]: the MCC in series [1] was determined as 20 µM. In addition, the EC50 in the series on Influenza A virus (mdck) was 8.68 µM.
In the series on Trypanosoma brucei, `NC12CC3CC(CC(C3)C1)C2` [AMANTADINE] returned an IC50 of more than 130 µM. Moreover, the MCC in series [1] was more than 100 µM. The EC50 in the series with Influenza A virus (Influenza A virus, H3N2, MDCK) stood at 1.98 µM.
For `CN1CCC2(CC1)C1CC3CC(C1)CC2C3.Cl`, the MCC in series [1] is 4 µM. Further, the EC50 with Influenza A virus (Influenza A virus, H3N2, MDCK) worked out at 4.3 µM.
`C1C2CC3CC1CC(C2)C31CN1` (centres undefined) returned a concentration for half-maximal inhibition (IC50) in the series with Trypanosoma brucei of more than 30 µM. Moreover, the MCC in series [1] is 25 µM. Further, the 50% effective concentration (EC50) with Influenza A virus (Influenza A virus, H3N2, MDCK) is more than 5 µM.
In the same order, the values of `CN1CCC12C1CC3CC(C1)CC2C3` (centres undefined) are more than 25 µM, 50 µM and 0.59 µM.
Turning to `CN1CCC2(CC1)C1CC3CC(C1)CC2C3`, in the series on Trypanosoma brucei, the IC50 is more than 20 µM.
